Organism: Rattus norvegicus
Test: Open TG-GATES - Regimen: Daily Repeat
Format: toxicity, organism-based, Sprague-Dawley
Parameters: regimen Daily Repeat, gender Male, age 6 weeks
Conditions: in vivo, po, 400 mg/kg, route gavage, dose level High; for APTT / Bas / Eos / Fbg / Hb / Ht / Lym / MCH / MCHC / MCV / Mono / Neu / PT / Plat / RBC / Ret / WBC: tissue Blood; for KIDNEY_L / KIDNEY_R / KIDNEY_TOTAL: tissue Kidney; for LIVER: tissue Liver; for A/G / ALP / ALT / AST / BUN / CRE / Ca / Cl / DBIL / GLC / IP / K / LDH / Na / PL / RALB / TBIL / TC / TG / TP / gamma-GTP: tissue Plasma

## COc1ccc(Cc2nccc3cc(OC)c(OC)cc23)cc1OC [PAPAVERINE]
72 h, time 3 day
  TERMINAL_BW: 239.4 g
  APTT: 23.7 s
  Bas: 0%
  Eos: 1%
  Fbg: 314.4 mg/dL
  Hb: 13.5 g/dL
  Ht: 39.4%
  Lym: 73%
  MCH: 20.9 pg
  MCHC: 34.2%
  MCV: 61.1 fL
  Mono: 2%
  Neu: 23%
  PT: 15 s
  Plat: 111.3 x10_4/uL
  RBC: 644.8 x10_4/ul
  Ret: 5%
  WBC: 85.7 x10_2/uL
  KIDNEY_L: 1 g
  KIDNEY_R: 1.1 g
  KIDNEY_TOTAL: 2.1 g
  LIVER: 11.8 g
  A/G: 1.3
  ALP: 1542 IU/L
  ALT: 48.4 IU/L
  AST: 75.8 IU/L
  BUN: 16.6 mg/dL
  CRE: 0.1 mg/dL
  Ca: 10.9 mg/dL
  Cl: 107.4 meq/L
  DBIL: 0 mg/dL
  GLC: 179.8 mg/dL
  IP: 7.3 mg/dL
  K: 4.3 meq/L
  LDH: 160.2 IU/L
  Na: 143 meq/L
  PL: 148.4 mg/dL
  RALB: 3.1 g/dL
  TBIL: 0.008 mg/dL
  TC: 83 mg/dL
  TG: 78.4 mg/dL
  TP: 5.6 g/dL
  gamma-GTP: 1.4 IU/L
[…], time 7 day
  TERMINAL_BW: 267.4 g
  APTT: 24.2 s
  Bas: 0%
  Eos: 0.4%
  Fbg: 337.4 mg/dL
  Hb: 13.6 g/dL
  Ht: 40.4%
  Lym: 74.4%
  MCH: 20.9 pg
  MCHC: 33.7%
  MCV: 61.9 fL
  Mono: 3%
  Neu: 20.8%
  PT: 15.2 s
  Plat: 126.4 x10_4/uL
  RBC: 652 x10_4/ul
  Ret: 5.8%
  WBC: 107.2 x10_2/uL
  KIDNEY_L: 1.2 g
  KIDNEY_R: 1.2 g
  KIDNEY_TOTAL: 2.3 g
  LIVER: 13.4 g
  A/G: 1.2
  ALP: 1249.6 IU/L
  ALT: 42.6 IU/L
  AST: 68 IU/L
  BUN: 18 mg/dL
  CRE: 0.2 mg/dL
  Ca: 10.9 mg/dL
  Cl: 107 meq/L
  DBIL: 0 mg/dL
  GLC: 191.8 mg/dL
  IP: 7.2 mg/dL
  K: 4.2 meq/L
  LDH: 164 IU/L
  Na: 142 meq/L
  PL: 149.4 mg/dL
  RALB: 3.1 g/dL
  TBIL: 0 mg/dL
  TC: 79.4 mg/dL
  TG: 91 mg/dL
  TP: 5.8 g/dL
  gamma-GTP: 2 IU/L
[…], time 14 day
  TERMINAL_BW: 315.9 g
  APTT: 24.2 s
  Bas: 0%
  Eos: 1%
  Fbg: 321.6 mg/dL
  Hb: 14.1 g/dL
  Ht: 42.3%
  Lym: 75.4%
  MCH: 19.3 pg
  MCHC: 33.3%
  MCV: 58.2 fL
  Mono: 2.8%
  Neu: 19.2%
  PT: 15.4 s
  Plat: 128.5 x10_4/uL
  RBC: 728.6 x10_4/ul
  Ret: 4.3%
  WBC: 108.5 x10_2/uL
  KIDNEY_L: 1.4 g
  KIDNEY_R: 1.4 g
  KIDNEY_TOTAL: 2.7 g
  LIVER: 14.4 g
  A/G: 1.1
  ALP: 1494.6 IU/L
  ALT: 46.4 IU/L
  AST: 71 IU/L
  BUN: 17 mg/dL
  CRE: 0.2 mg/dL
  Ca: 10.5 mg/dL
  Cl: 106.8 meq/L
  DBIL: 0 mg/dL
  GLC: 183 mg/dL
  IP: 7.5 mg/dL
  K: 4.1 meq/L
  LDH: 142.6 IU/L
  Na: 142.8 meq/L
  PL: 143.8 mg/dL
  RALB: 3.1 g/dL
  TBIL: 0.02 mg/dL
  TC: 73.6 mg/dL
  TG: 81.8 mg/dL
  TP: 5.8 g/dL
  gamma-GTP: 2.4 IU/L
[…], time 28 day
  TERMINAL_BW: 373.4 g
  APTT: 25.6 s
  Bas: 0%
  Eos: 1%
  Fbg: 328 mg/dL
  Hb: 14.4 g/dL
  Ht: 43.7%
  Lym: 71.8%
  MCH: 18.6 pg
  MCHC: 33%
  MCV: 56.6 fL
  Mono: 2.2%
  Neu: 23.8%
  PT: 15.9 s
  Plat: 109.9 x10_4/uL
  RBC: 772.5 x10_4/ul
  Ret: 2.6%
  WBC: 94.3 x10_2/uL
  KIDNEY_L: 1.5 g
  KIDNEY_R: 1.5 g
  KIDNEY_TOTAL: 2.9 g
  LIVER: 16.5 g
  A/G: 1.1
  ALP: 1162 IU/L
  ALT: 47 IU/L
  AST: 69.5 IU/L
  BUN: 19.8 mg/dL
  CRE: 0.2 mg/dL
  Ca: 10.3 mg/dL
  Cl: 106.2 meq/L
  DBIL: 0 mg/dL
  GLC: 182 mg/dL
  IP: 6.6 mg/dL
  K: 4 meq/L
  LDH: 141 IU/L
  Na: 142.5 meq/L
  PL: 146.2 mg/dL
  RALB: 3.2 g/dL
  TBIL: 0.0075 mg/dL
  TC: 82.2 mg/dL
  TG: 86 mg/dL
  TP: 6.1 g/dL
  gamma-GTP: 2.2 IU/L
